According to patent US12502369B2, “Methods of cancer treatment” (K-GEN, INC., priority 2015, dated 2025):
“Also recorded” adds a separate entry of the source. Like-named read-outs stand apart in the source and are kept apart here.

Tests used:
[1] = tested on: LS180; experiment: Proliferation assay (CellTiter Glo), LS180; assay type: cell-based; conditions: for Top inhibition %: 96 hours; for EC50: absolute EC50, 96 hours, read-out: Ab EC50
Experimental: (§1) Briefly, cells at a density of 1,000-10,000 cells/well were seeded in 96-well plates and incubated at 37′C for 24 hours. A series of 9 different concentrations of compound stocks (500×) were created by 3-fold serial dilution in DMSO. These compounds were further diluted in culture media and then added to cells so that the final DMSO concentration was 0.2%. After 96 hours of incubation, 50 μL of CellTiter Glo reagent (Promega) was added to each well and luminescence was measured after 10 minutes using EnVision (PerkinElmer). […] The dose range for most compounds was 4.6 nM-30 μM. The dose ranges for some compounds were adjusted downward to 0.46 nM-3 μM or 0.08 nM-0.5 μM or 0.03 nM-0.2 μM. Luminescence from cells treated with […] alone was set as Max and % of inhibition was calculated as follows: Inhibition %=(Max-Sample value)/Max*100. Data was analyzed using XL-fit software (ID Business Solutions Ltd.) and EC50, relative EC50, and % of top inhibition were calculated. The results are shown in Tables 3-6 for pancreatic cancer, lung cancer, colon/gastric cancer, and leukemia cell lines.

[2] = tested on: SW620; experiment: Proliferation assay (CellTiter Glo), SW620; assay type: cell-based; conditions: for Top inhibition %: 96 hours; for EC50: read-out: Ab EC50
Experimental: as §1

[3] = tested on: HL60; experiment: Proliferation assay (CellTiter Glo), HL60; assay type: cell-based; conditions: for Top inhibition %: 96 hours
Experimental: as §1

[4] = tested on: THP1; experiment: Proliferation assay (CellTiter Glo), THP1; assay type: cell-based; conditions: for Top inhibition %: 96 hours
Experimental: as §1

[5] = tested on: BxPC-3; experiment: Proliferation assay (CellTiter Glo), BxPC-3; assay type: cell-based; conditions: BxPC-3 (WT K-ras)
Experimental: as §1, with “calculated.” for “calculated. The results are shown in Tables 3-6 for pancreatic cancer, lung cancer, colon/gastric cancer, and leukemia cell lines.”
(§2) Other cancer cell lines having wild-type K-ras status and K-ras mutation at G12 were also screened using the PKC activator compounds. […] K-104 was tested in a range of 0.03 nM-0.2 μM. […] The dose ranges were adjusted downward to 0.46 nM-3 μM for K-102 and 0.08 nM-0.5 μM for K-103 for some cell lines.

[6] = tested on: H838; experiment: Proliferation assay (CellTiter Glo), H838; assay type: cell-based; conditions: H838 (WT K-ras)
Experimental: as §1, with “calculated.” for “calculated. The results are shown in Tables 3-6 for pancreatic cancer, lung cancer, colon/gastric cancer, and leukemia cell lines.”
as §2

[7] = tested on: leukemia inhibitory factor (LIF); experiment: Western blot of LIF in A549 cells; assay type: cell-based; conditions: for protein levels of the leukemia inhibitory factor (LIF): Western blot, concentrations of Table 8, 48 hours
Experimental: Cancer cells (2-8 million cells) were seeded in 10 cm dishes and grown overnight. For A549 lung cancer cell line, about 3 million cells were seeded. Cells were then treated with different drugs at indicated concentrations (see Table 8) for a period of time up to 48 hours. Cells were lysed in 0.3-0.5 mL of RIPA buffer (Sigma) supplemented with protease inhibitors (Roche) and phosphatase inhibitors (Sigma). Lysates were assayed for protein concentration using BCA kit (Pierce). Normalized amount of lysates (20-30 μg protein/lane) were run on 4-12% NuPage gel (Life Technologies) and the proteins were transferred to the PVDF or nitrocellulose membrane using iBlot® Transfer Stack (Life Technologies). The membranes were probed with primary antibodies shown in Table 8 at 4° C. overnight after blocking with 1×TBST containing 5% non-fat milk. Antibodies from other vendors could also be used in Western blot analysis. After washing 5 times with 1×TBS containing 0.1% Tween20, the membranes were probed with 2nd antibodies Anti-mouse IgG Dylight 800 conjugate or Anti-rabbit IgG DyLight 680 conjugate (1:10000; Cell signaling or similar IR 2nd antibodies from different vendors) at room temperature for one hour. After washing 5 times, the membranes were scanned using Odyssey® Imaging System (Licor Biosciences).

[8] = tested on: PKCμ and PKCδ in HFL-1 cells; experiment: Activation of PKC isoforms in non-cancerous lung fibroblast HFL-1 cells; assay type: cell-based, human; conditions: 30 minutes
[9] = tested on: PKCδ; experiment: PKCδ Tyr311 phosphorylation in A549, HCT116, SW620, Panc02.13 cells, Western blot; assay type: cell-based; conditions: 30 minutes
Experimental: Non-cancerous lung fibroblast cell line HFL-1 or cancer cells (2-8 million cells) were seeded in 10 cm dishes and grown overnight so that the cells were about 40-80% confluent before treatment with the compound. Cells were then treated with different drugs at indicated concentrations (see descriptions for FIG. 11 and FIG. 12) for 30 minutes. Cell lysate preparation, protein quantitation, SDS-PAGE, and Western blotting procedures are described in Example 2 and 4. Primary antibodies used in this Example and later Examples of this application are shown in Table A. Secondary antibodies Anti-mouse IgG HRP conjugate or Anti-rabbit IgG HRP conjugate (dilutions from 1:2000-1:10000) were used. Western blot membranes were scanned using Imagequant LAS4000 (GE). The results are shown in FIG. 11A and FIG. 11B for HFL-1 cells and FIG. 11C and FIG. 12 for A549 cells.

[10] = tested on: PKCδ, PKCμ, c-Raf in MBT-2; experiment: Activation of PKC isoforms in bladder cancer line MBT-2, Western blot; assay type: cell-based, mouse
[11] = tested on: CaMKii (Thr286); experiment: CaMKii phosphorylation in pancreatic cancer cell lines, Western blot; assay type: cell-based; conditions: Panc1 or Panc2.13 cells; 24 or 48 hours; K-101A 0.5 and 2.5 μM, K-102 0.1 and 0.5 μM
Experimental: Cells were lysed in a protein lysis buffer (1 ml of 10×TNE [20 mL 1M Tris pH7.5; 30 mL 5M NaCl; 2 mL 0.5M EDTA; 48 mL d2H2O], 1 ml of 10% NP40, 7.7 mL of dH2O, 100 μL of 10× Protease inhibitors, 100 μL of 10× Phosphatase inhibitors, and 10 μl DTT). Protein quantification, SDS-PAGE, and Western blot procedures were performed as described in Example 2. […] The effect was more apparent at 48 hours. Phospho-CaMKii (T286) is a marker for activation of CaMKii kinase in the Wnt/Ca^2′ signaling pathway when K-Ras and CaM are dissociated (Wang et al., 2015, Cell. 163(5):1237-51).

[12] = absolute EC50, 96 hours, read-out: Ab EC50
[13] = relative EC50, 96 hours, read-out: Re EC50

| Compound | Top inhibition % [1] | Top inhibition % [2] | Top inhibition % [3] | Top inhibition % [4] | Top inhibition % [5] | Top inhibition % [6] | protein levels of the leukemia inhibitory factor (LIF) [7] | phosphorylation of PKCμ at Ser916 and Ser744/748, and PKCδ at Thr505 and Tyr311 [8] | PKCδ activation, phosphorylation at Tyr311 [9] | phosphorylation on CaMKii at Thr286 [11] | further results |
| --- | --- | --- | --- | --- | --- | --- | --- | --- | --- | --- | --- |
| CC(=O)OCC1=C[C@H]2[C@@H]3C(C)(C)[C@]3(OC(C)=O)C[C@@H](C)[C@]2(O)C2C=C(C)C(=O)[C@@]2(O)C1 (some centres unmarked) [Compound K-101E] | 1.3% | 0.0% | 63.4% | 51.6% | 38.87% | 26.8% | did not affect |  |  |  | EC50 [1]: > 30000 nM; EC50 ([2]; absolute EC50, 96 hours): > 30000 nM; EC50 [3, 12]: 3050 nM; EC50 [3, 13]: 1920 nM; EC50 [4, 12]: 3600 nM; EC50 [4, 13]: 1020 nM |
| CC(=O)O[C@@]12C[C@@H](C)[C@]3(O)C4C=C(C)C(=O)[C@@]4(O)CC(CO)=C[C@H]3[C@@H]1C2(C)C (some centres unmarked) [Compound K-101A, Prostratin] | 4.4% | 0.0% | 61.3% | 51.8% | 40.11% | 10.1% | dose-dependent reduction | resulted in phosphorylation | observed for cell lines HCT116 and SW620 but not as significantly for cell lines A549 and Pan 02,13; also recorded: observed for cell lines HCT116 and SW620 but not as significantly for cell lines A549 and Panc02.13 | induced phosphorylation | EC50 ([1]; Homo sapiens): > 30000 nM; EC50 ([2]; Homo sapiens, SW-620, absolute EC50, 96 hours): > 30000 nM; EC50 ([3]; Homo sapiens, HL-60, absolute EC50, 96 hours, read-out: Ab EC50): 470 nM; EC50 ([3]; Homo sapiens, HL-60, relative EC50, 96 hours, read-out: Re EC50): 400 nM; EC50 ([4]; Homo sapiens, THP-1, absolute EC50, 96 hours, read-out: Ab EC50): 870 nM; EC50 ([4]; Homo sapiens, THP-1, relative EC50, 96 hours, read-out: Re EC50): 300 nM; LIF protein level ([7]; 0.5 uM of K-101A): lowered; phosphorylations of PKCδ at Thr505, PKCμ at Ser744/748, PKCμ at Ser916, c-Raf at Ser338 [10]: induced phosphorylations |
| C/C=C(/C)C(=O)O[C@H]1C(C)=C[C@]23C(=O)[C@@H](C=C(CO)[C@@H](O)[C@]12O)[C@H]1[C@@H](C[C@H]3C)C1(C)C [Compound K-102, Ingenol-3-angelate, reference compound] |  |  |  |  |  |  |  | resulted in phosphorylation | observed for PKC activator insensitive cell lines HCT116 and SW620 but not as significantly for sensitive cell lines A549 and Pan 02,13; also recorded: observed for cell lines HCT116 and SW620 but not as significantly for cell lines A549 and Panc02.13 | induced phosphorylation | phosphorylations of PKCδ at Thr505, PKCμ at Ser744/748, PKCμ at Ser916, c-Raf at Ser338 ([10]; MBT-2, K101A 1 μM, K102 0.1 μM): induced phosphorylations |
